{"source": "patent US20240140933A1", "about": "“OXOINDOLINE COMPOUND FOR THE TREATMENT OF INFLAMMATORY DISEASES OR CANCER” (Hoffmann-La Roche Inc., priority 2021, published 2024)", "target": "PDHK1 (Homo sapiens (Human), UniProt Q15118)", "sequence (Q15118 29-436)": "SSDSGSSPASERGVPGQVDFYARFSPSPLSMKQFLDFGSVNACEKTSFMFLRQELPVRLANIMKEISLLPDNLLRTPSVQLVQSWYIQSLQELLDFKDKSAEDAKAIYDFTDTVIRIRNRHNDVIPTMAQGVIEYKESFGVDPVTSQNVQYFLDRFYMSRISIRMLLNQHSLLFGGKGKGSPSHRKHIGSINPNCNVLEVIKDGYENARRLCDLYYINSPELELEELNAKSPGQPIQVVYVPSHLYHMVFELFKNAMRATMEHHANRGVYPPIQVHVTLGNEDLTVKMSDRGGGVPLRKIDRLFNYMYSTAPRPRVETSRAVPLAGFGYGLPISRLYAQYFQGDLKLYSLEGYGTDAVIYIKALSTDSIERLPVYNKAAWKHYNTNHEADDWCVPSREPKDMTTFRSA", "assay": "PDHK1 enzymatic assay (AlphaScreen, phosphorylation of PDHE1 S293)", "format": "biochemical", "settings": "1 nM PDHK1, 25 nM PDHE1, 20 μM ATP, 30° C. for 45 minutes", "description": "Pyruvate dehydrogenase complex (PDHc) is an enzyme that catalyzes the reaction of pyruvate and a lipoamide to give the acetylated dihydrolipoamide and carbon dioxide. PDHc has three subunits E1, E2 and E3. E1 has 3 serine phosphorylation sites S293, S232, S300. If E1 was phosphorylated, PDH will be inactivated. PDHK can phosphorylate PDH protein (also named PDHE1) in PDH complex (PDC) to inactivate it."}
{"smiles": "CCNc1cc(F)cc2c1NC(=O)[C@]2(C)N1CC[C@H](c2ccccc2)[C@H](C(N)=O)C1", "note": "[Example 63A, (3S,4S)-1-[(3R)-7-(ethylamino)-5-fluoro-3-methyl-2-oxo-indolin-3-yl]-4-phenyl-piperidine-3-carboxamide]", "values": [{"measurement": "Enzymatic IC50 against PDHK1", "value": 9, "unit": "ng/mL"}]}
